The results in this text go back to patent US20240124501A1, “VANADIUM COMPOUNDS AND METHODS OF MAKING AND USING THEREOF” (priority 2022, published 2024).

The test system of data set [1] is T98 g cells (human glioblastoma multiforme). The data set is described as follows: IC50 for 72 h treatments with fresh vanadium(V) compounds in T98 g cells (Example 7). The settings on record: 72 h treatment, each measurement reported, read-out: IC50 Value(s) (converted). Format: cell-based. The procedure:
(§1) Cell Culture and Growth Conditions. The well-established human glioblastoma multiforme cell line (T98 g) and human foreskin fibroblast (HFF-1) cell lines were purchased from American Type Culture Collection (ATCC, cat. no. CRL-1690 and SCRC-1041). Due to their limited life span in culture, HFF-1 cells were used at passages four to six. The cells were cultured in Advanced DMEM (Thermo Fisher Scientific cat. no. 12491-015), supplemented with L-glutamine (2.0 mM), antibiotic-antimycotic mixture (100 U mL^−1 penicillin, […] streptomycin, and […] amphotericin B), and fetal calf serum (FCS; heat-inactivated; 2% vol). For proliferation and cytotoxicity experiments, cells were seeded in 96-well plates at an initial density of 1.5×10^3 viable cells per well in 100 μL medium and left to attach overnight.
(§2) Freshly prepared stock solutions of V(V) complexes (10 mM in DMSO) were used for cell assays. […] Stock solutions of the treatment complexes were diluted with fully supplemented cell culture media to the required final concentrations, and the resultant media were either added to the cells within 1 min (fresh solutions) or left in cell culture incubator (310 K, 5% CO2) for 24 h prior to the cell treatments (aged solutions).
(§3) Each treatment included six replicate wells with cells and two background wells without cells that contained the same components. After the addition of treatment complexes, the plates were incubated for 72 h at 310 K and 5% CO2, then MTT reagent [1-(4,5-dimethylthiazol-2-yl)-3,5-diphenylformazan, Sigma M5655] was added (50 μL per well of freshly prepared 2.0 mg/mL solution in complete medium), and incubation was continued for 4-6 h. After that, the medium was removed, the blue formazan crystals were dissolved in 0.10 mL per well of DMSO, and the absorbance at 600 nm was measured using a Victor V3 plate reader. Typically, the treatment complexes were applied in a series of nine two-fold dilutions, starting from (100±20) M V, plus the vehicle control. Exact V concentrations in the assays were verified by ICP-MS measurements using samples of cell culture media and used in the calculations of the IC50 values. Fitting of the experimental data and calculations of the IC50 values were performed using Origin 6.1 software (Microcal Origin, 1999). For all the cell assays, consistent results were obtained in at least two independent experiments using different passages of cells and varying stock solutions of the treatment complexes.
In cases where multiple measurements were performed, the value determined for each measurement are reported.

The test system of data set [2] is Mycobacterium smegmatis (M. smeg). Nature of the data set: Growth inhibition of M. smeg (MIC/IC50 measurement). The settings on record: Mycolicibacterium smegmatis; M. smeg in 7H9 media, 24 h at 37° C., OD600; mean and SD of triplicate. Format: cell-based, Mycobacterium smegmatis mc^2 155. The procedure: Cell Culture and Growth Conditions. M. smeg was cultured in Middlebrook 7H9 medium (Ref. no. 271310; Difco) supplemented with 10% OAD (oleic acid, albumin, dextrose), 0.2% (v/v) glycerol, and […], and incubated with shaking for 24 h at 37° C. M. smeg was grown to a mid-logarithmic growth phase assessed via spectrophotometry and occurred at an optical density of 0.6 at 600 nm (OD600). In some experiments where M. smeg was treated with vanadium complexes, the cell culture supernatant was collected for ^51V NMR studies.
Minimum Inhibitory Concentration (MIC) Measurements. The inhibitory activity of the tested compounds was determined by measuring the lowest concentration that caused bacterial growth inhibition of 50% (IC50). M. smeg was grown to the mid-log phase of 0.6-0.8 at OD600. The final concentrations of the compounds used in these studies were obtained using serial dilutions to a final concentration range of 2 to 0.0039 mM and placed with M. smeg in 7H9 media into a 96-well plate. Plates were incubated for 24 h at 37° C. A Bio-Rad Benchmark Reader (Bio-Rad Laboratories: Hercules, CA, USA) was used to check the cell viability at OD600 at appropriate times. IC50 was determined to be the lowest concentration of complexes that inhibited M. smeg growth by 50%.
Statistical Analysis. For each treatment, data were represented as the mean and standard deviation of the IC50 from triplicate measurements. The IC50 was calculated using GraFit 5 data analysis software (version 5.0.13). • Chemistry
Preparation of Stock Solutions for Cell Culture Experiments. A 20 mM stock solution of each respective V-complex and its free ligands was prepared in DMSO and diluted with 7H9 media to a concentration of 2.0 mM for biological studies.

Data set [3] has as its system T98g (human glioblastoma cells). The data set is described as follows: Anti-proliferative activity, MTT assay, T98g cells (Example 5). Format: cell-based. The settings on record: read-out: IC50 (T98g), condition (B). For orientation: Formazan colour is commonly taken as a measure of viable cells.
Data set [4] relates to HFF-1 (non-cancer human fibroblasts). The data set is described as follows: Anti-proliferative activity, MTT assay, HFF-1 cells (Example 5).
The test system of data set [5] is T98g cells (human glioblastoma multiforme). The data set is described as follows: Antiproliferative activity, MTT assay, T98g cells (Example 4). The following applies: 72 h treatment. Format: cell-based. As to the method:
as §1, with “µL” for “μL”
as §2
as §3, with “(100±20) μM” for “(100±20) M”

Data set [6] deals with HFF-1 (human foreskin fibroblasts). Nature of the data set: Cytotoxicity, MTT assay, HFF-1 cells (Example 4). Format: cell-based. The following applies: 72 h treatment; mixed with medium ~1 min before treatment; read-out: IC50 HFF-1 (fresh). As to the method: as §1, with “µL” for “μL”
Freshly prepared stock solutions of V(V) complexes (10 mM in DMSO) were used for cell assays. […]
Each treatment included six replicate wells with cells and two background wells without cells that contained the same components. […] After that, the medium was removed, the blue formazan crystals were dissolved in 0.10 mL per well of DMSO, and the absorbance at 600 nm was measured using a Victor V3 plate reader. […]

The subject of a further data set is T98g cells. Nature of the data set: V uptake by T98g cells (ICPMS). Format: cell-based, human. The settings on record: 30 min treatment with 100 μM of freshly diluted V complexes. As to the method:
For V uptake experiments, T98 g cells were grown to ˜80% confluence in 12-well plates (three replicates per treatment). […] After that, V-containing media were removed, the cell layers were washed twice with phosphate buffered saline (PBS), detached with TrypLE solution (Thermo Fisher Scientific Cat. No. 12605028), pelleted, and washed again with PBS. Detachment and washing of cell pellets were used to remove V that was absorbed on the culture plates and on the cell surface. Cell numbers in each pellet were counted with a Countess automatic counter, typical numbers were (5±1)×10^5 cells/well, cell viability was >95% (Trypan blue staining). Cell pellets were digested with 0.20 mL of 65% HNO3 (trace pure, Merck 225711) for 3 d at 295 K, then diluted with Milli-Q water to 1.0 mL for ICPMS analysis. The analysis was performed with a Perkin-Elmer Nexion 350× spectrometer, using a standard V(IV) solution (Choice Analytical, Australia) and 193Ir peak as an internal standard. The measurements were performed in kinetic energy discrimination (KED) mode to eliminate the interference of [^35Cl^16O]^+ ions with the determination of ^51V^+. Cellular V concentrations were expressed in atoms V per cell. For all the cell assays, consistent results were obtained in at least two independent experiments, using different passages of cells and different stock solutions of the treatment compounds.

The mark [7] stands for this setting: complexes mixed with cell culture medium ~1 min (295K) before treatment, read-out: IC50 T98g (fresh).
Where [8] appears, read: pre-incubated with cell culture medium 24 h at 310K, 5% CO2, read-out: IC50 T98g (aged).

“And” between values parts separate entries of the source, which are not always exact repeats. Equal entries are not always repeated. Where two headings read alike, the source gives them in different places. A value given as a limit tells only on which side of the number the result lay.

For `CCOc1cccc2c1[O][V]1(=[O])([O]c3cc(C45CC6CC(CC(C6)C4)C5)cc(C45CC6CC(CC(C6)C4)C5)c3[O]1)[N](CCO)CCN=C2`, the concentration for half-maximal inhibition (IC50) in data set [1] is 3.3 ± 0.4 µM.

For the compound `CCOc1cccc2c1[O][V]1(=[O])([O]c3cc(C45CC6CC(CC(C6)C4)C5)cc(C(C)(C)C)c3[O]1)[N](CCO)CCN=C2`, the IC50 in data set [1] was 2.1 ± 0.3 µM.

Regarding `CC(C)(C)c1cc(O)c(O)c(C(C)(C)C)c1` [H2dtb, 3,5-di-tert-butylcatechol], the IC50 in data set [2] worked out at 241 ± 0.07 µM; in data set [3] it was 15 ± 3 µM; in data set [4] (Homo sapiens, HFF-1, read-out: IC50 (HFF-1), condition (B)) it was 24 ± 2 µM.

In turn, `COc1cccc(O)c1O` [H23OMet, 3-methoxy catechol] gave an IC50 in data set [2] of 262 ± 0.15 µM.

Take `CC(C)(C)c1cc2c(c(C34CC5CC(CC(C5)C3)C4)c1)[O][V]1(=[O])([O]c3ccccc3C=NCC[N]1CCO)[O]2`: the IC50 in data set [1] is 9.3 ± 2.1 µM.

Regarding `CC(C)(C)c1cc2c(c(C(C)(C)C)c1)[O][V]1(=[O])([O]c3cc4ccc(=O)oc4cc3[O]1)[N](CCO)CCN=C2`, the half-maximal inhibitory concentration (IC50) in data set [1] is 4.2 µM and 6.9 µM.

Turning to `[Na+].[Na+].[Na+].[O]=[V]([O-])([O-])[O-]` [Na3VO4], the IC50 was ~40 µM and 26 µM in data set [5] (setting [7]); 24 ± 4 µM in data set [5] (setting [8]); 23 ± 3 µM in data set [6]. Further, in the data set with T98g cells, the “Uptake (T98g) of V” value is “(3.3 ± 0.8) × 10^7 atoms per cell”. Also, in data set [4] (subtoxic concentrations, not seen in T98g), the “viability of HFF-1 cells compared with the vehicle control” value is recorded as 120-140%.

Regarding `CC(C)(C)c1cc2c(c(C34CC5CC(CC(C5)C3)C4)c1)[O][V]1(=[O])([O]c3ccc(Cl)cc3C=NCC[N]1CCO)[O]2`, the half-maximal inhibitory concentration (IC50) in data set [1] was 3.4 ± 0.2 µM.

On to `CC(C)(C)c1cccc2c1[O][V]1(=[O])([O]c3cc(C45CC6CC(CC(C6)C4)C5)cc(C45CC6CC(CC(C6)C4)C5)c3[O]1)[N](CCO)CCN=C2`, for which the concentration for half-maximal inhibition (IC50) in data set [1] was 5.3 ± 1.6 µM.

`CCOc1cccc2c1[O][V]1(=[O])([O]c3cc(C45CC6CC(CC(C6)C4)C5)cc(C)c3[O]1)[N](CCO)CCN=C2`: the IC50 in data set [1] is 14 ± 2 µM.

In turn, `Oc1ccccc1O` [H2cat, catechol] gave an IC50 in data set [2] of 109 ± 0.05 µM.

As for `[O]=[V]12([O]c3ccc(Cl)cc3C=NCC[N]1CCO)[O]c1cc(C34CC5CC(CC(C5)C3)C4)cc(C34CC5CC(CC(C5)C3)C4)c1[O]2`, the half-maximal inhibitory concentration (IC50) in data set [1] was 11 ± 1 µM.

In turn, `O=c1ccc2cc(O)c(O)cc2o1` [H2Coum, 6,7-dihydroxycoumarin] gave a concentration for half-maximal inhibition (IC50) in data set [2] of 506 ± 0.28 µM.

For the compound `Oc1c(O)c(Br)c(Br)c(Br)c1Br` [H2tbc, tetrabromocatechol], in data set [2], the 50% inhibitory concentration (IC50) was 416 ± 0.19 µM.

For the compound `O=[N+]([O-])c1ccc(O)c(O)c1` [H24NO2, 4-nitrocatechol], 610 ± 0.05 µM corresponded to half-maximal inhibition in data set [2] (IC50).

For `N.N.[Cl][Pt][Cl]` [cisplatin], the 50% inhibitory concentration (IC50) in data set [5] (setting [7]) is 33 ± 1 µM; in data set [5] (setting [8]), more than 50 µM; in data set [6] it was 45 ± 4 µM.

The compound `N#Cc1ccc(O)c(O)c1` [H2CN, 3,4-dihydroxybenzonitrile] returned an IC50 in data set [2] of 447 ± 0.04 µM.

Consider `CCOc1cccc2c1[O][V]1(=[O])([O]c3cc(C(C)(C)C)cc(C(C)(C)C)c3[O]1)[N](CCO)CCN=C2`, for which the 50% inhibitory concentration (IC50) in data set [1] is 2.4 ± 0.3 µM.

By IC50 is commonly meant the concentration that inhibits the measured activity by half.
